In PubChem BioAssay AID1259407 (Chemical Carcinogenesis Research Information System (CCRIS), 2018):
Activity calls are given as the source filed them. No rule for the calls is given here.

System: CCRIS mutagenicity, Ames/micronucleus/aberration tests
Assay: CCRIS mutagenicity studies

## Cc1ccc(O)c(N)c1
Test System: AMES SALMONELLA TYPHIMURIUM, Strain/Indicator: TA97, Metabolic Activation: HAMSTER, LIVER, S-9, AROCLOR 1254 (10%), Method: PREINCUBATION
  mutagenic call: inactive; negative
Test System: AMES SALMONELLA TYPHIMURIUM, Strain/Indicator: TA97, Metabolic Activation: NONE, Method: PREINCUBATION
  mutagenic call: active; positive
Test System: AMES SALMONELLA TYPHIMURIUM, Strain/Indicator: TA97, Metabolic Activation: RAT, LIVER, S-9, AROCLOR 1254 (10%), Method: PREINCUBATION
  mutagenic call: inactive; negative
Test System: AMES SALMONELLA TYPHIMURIUM, Strain/Indicator: TA98, Metabolic Activation: HAMSTER LIVER S-9, AROCLOR 1254, Method: STANDARD PLATE
  mutagenic call: inactive; negative
Test System: AMES SALMONELLA TYPHIMURIUM, Strain/Indicator: TA98, Metabolic Activation: HAMSTER, LIVER, S-9, AROCLOR 1254 (10%), Method: PREINCUBATION
  mutagenic call: inactive; negative
Test System: AMES SALMONELLA TYPHIMURIUM, Strain/Indicator: TA98, Metabolic Activation: NONE, Method: PREINCUBATION
  mutagenic call: inactive; negative
Test System: AMES SALMONELLA TYPHIMURIUM, Strain/Indicator: TA98, Metabolic Activation: NONE, Method: STANDARD PLATE
  mutagenic call: inactive; negative
Test System: AMES SALMONELLA TYPHIMURIUM, Strain/Indicator: TA98, Metabolic Activation: RAT LIVER S-9, AROCLOR 1254, Method: STANDARD PLATE
  mutagenic call: inactive; negative
Test System: AMES SALMONELLA TYPHIMURIUM, Strain/Indicator: TA98, Metabolic Activation: RAT, LIVER, S-9, AROCLOR 1254 (10%), Method: PREINCUBATION
  mutagenic call: inactive; negative
Test System: AMES SALMONELLA TYPHIMURIUM, Strain/Indicator: TA100, Metabolic Activation: HAMSTER LIVER S-9, AROCLOR 1254, Method: STANDARD PLATE
  mutagenic call: inactive; negative
Test System: AMES SALMONELLA TYPHIMURIUM, Strain/Indicator: TA100, Metabolic Activation: HAMSTER, LIVER, S-9, AROCLOR 1254 (10%), Method: PREINCUBATION
  mutagenic call: active; positive
Test System: AMES SALMONELLA TYPHIMURIUM, Strain/Indicator: TA100, Metabolic Activation: NONE, Method: PREINCUBATION
  mutagenic call: active; positive
Test System: AMES SALMONELLA TYPHIMURIUM, Strain/Indicator: TA100, Metabolic Activation: NONE, Method: STANDARD PLATE
  mutagenic call: inactive; negative
Test System: AMES SALMONELLA TYPHIMURIUM, Strain/Indicator: TA100, Metabolic Activation: RAT LIVER S-9, AROCLOR 1254, Method: STANDARD PLATE
  mutagenic call: inactive; negative
Test System: AMES SALMONELLA TYPHIMURIUM, Strain/Indicator: TA100, Metabolic Activation: RAT, LIVER, S-9, AROCLOR 1254 (10%), Method: PREINCUBATION
  mutagenic call: active; positive
Test System: AMES SALMONELLA TYPHIMURIUM, Strain/Indicator: TA1535, Metabolic Activation: HAMSTER LIVER S-9, AROCLOR 1254, Method: STANDARD PLATE
  mutagenic call: inactive; negative
Test System: AMES SALMONELLA TYPHIMURIUM, Strain/Indicator: TA1535, Metabolic Activation: HAMSTER, LIVER, S-9, AROCLOR 1254 (10%), Method: PREINCUBATION
  mutagenic call: inactive; negative
Test System: AMES SALMONELLA TYPHIMURIUM, Strain/Indicator: TA1535, Metabolic Activation: NONE, Method: PREINCUBATION
  mutagenic call: inactive; negative
Test System: AMES SALMONELLA TYPHIMURIUM, Strain/Indicator: TA1535, Metabolic Activation: NONE, Method: STANDARD PLATE
  mutagenic call: inactive; negative
Test System: AMES SALMONELLA TYPHIMURIUM, Strain/Indicator: TA1535, Metabolic Activation: RAT LIVER S-9, AROCLOR 1254, Method: STANDARD PLATE
  mutagenic call: inactive; negative
Test System: AMES SALMONELLA TYPHIMURIUM, Strain/Indicator: TA1535, Metabolic Activation: RAT, LIVER, S-9, AROCLOR 1254 (10%), Method: PREINCUBATION
  mutagenic call: inactive; negative
Test System: AMES SALMONELLA TYPHIMURIUM, Strain/Indicator: TA1537, Metabolic Activation: HAMSTER LIVER S-9, AROCLOR 1254, Method: STANDARD PLATE
  mutagenic call: inactive; negative
Test System: AMES SALMONELLA TYPHIMURIUM, Strain/Indicator: TA1537, Metabolic Activation: NONE, Method: STANDARD PLATE
  mutagenic call: inactive; negative
Test System: AMES SALMONELLA TYPHIMURIUM, Strain/Indicator: TA1537, Metabolic Activation: RAT LIVER S-9, AROCLOR 1254, Method: STANDARD PLATE
  mutagenic call: inactive; negative
Test System: AMES SALMONELLA TYPHIMURIUM, Strain/Indicator: TA1538, Metabolic Activation: HAMSTER LIVER S-9, AROCLOR 1254, Method: STANDARD PLATE
  mutagenic call: inactive; negative
Test System: AMES SALMONELLA TYPHIMURIUM, Strain/Indicator: TA1538, Metabolic Activation: NONE, Method: STANDARD PLATE
  mutagenic call: inactive; negative
Test System: AMES SALMONELLA TYPHIMURIUM, Strain/Indicator: TA1538, Metabolic Activation: RAT LIVER S-9, AROCLOR 1254, Method: STANDARD PLATE
  mutagenic call: inactive; negative
Test System: MOUSE LYMPHOMA, Strain/Indicator: L5178Y (TK+/TK-), Metabolic Activation: NONE, Method: SUSPENSION/PLATE
  mutagenic call: active; positive. reevaluation of results: positive
Test System: MOUSE LYMPHOMA, Strain/Indicator: L5178Y (TK+/TK-), Metabolic Activation: RAT, LIVER, S-9, AROCLOR 1254, Method: SUSPENSION/PLATE
  mutagenic call: active; positive. reevaluation of results: positive
